Measurements: patent US20170334899A1, “AMINO-SUBSTITUTED ISOTHIAZOLES” (Bayer Pharma Aktiengesellschaft, priority 2014, published 2017)
Where a name gives a salt, the structure may show the parent alone. Read-outs that look alike come from different tables or passages of the source.

Assays:
[1] = target: T1, CDK2/CycE (Homo sapiens, UniProt P24941); experiment: CDK2/CycE kinase assay (TR-FRET); format: biochemical; settings: avg, read-out: CDK2 avg (IC50 [mol/l])
T1 construct: GST; purchased ProQinase GmbH (Freiburg, Germany); host or cells: insect cells (Sf9)
Method in brief: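 Read-out is a TR-FRET 665/620 nm emission ratio from EDTA-stopped reactions detected with anti-pRB(pSer807/pSer811), Eu-labelled anti-mouse IgG and streptavidin-XL665, scaled between no-enzyme and uninhibited wells. Reaction: Sf9-expressed GST-CDK2/GST-CycE, 15 min compound preincubation, 10 μM ATP, 0.75 μM biotin-peptide, 25 min, 22° C., pH 8.0 Tris buffer.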

[2] = test system: HeLa; experiment: Proliferation assay (crystal violet), HeLa; format: cell-based; settings: HeLa cells, 4 days incubation, crystal violet staining, read-out: IC50 inhibition of proliferation, HeLa
Method in brief: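 Absorbance at 595 nm of crystal-violet-stained cells after 4 days' exposure to 0.001–10 μM compound (0.5% DMSO). Values normalized to a day-0 plate (0%) and untreated cells (100%); IC50 by 4-parameter fit.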

Row | IC50 [1] [µM] | IC50 ([2]; Homo sapiens, HeLa, 96 h) [µM] | IC50 [2] [µM] | SMILES
1 | ≥ 20 | 5.3 | – | Cc1nsc(Nc2cc(C#N)ccn2)c1C(=O)Nc1ccc(Oc2cccnc2)nc1 [Example 119, 5-[(4-Cyanopyridin-2-yl)amino]-3-methyl-N-[6-(pyridin-3-yloxy)pyridin-3-yl]-1,2-thiazole-4-carboxamide]
2 | > 20 | 8.9 | – | Cc1nsc(Nc2cnc(C(F)(F)F)cn2)c1C(=O)Nc1ccc(F)c(C(N)=O)c1 [Example 151, N-(3-carbamoyl-4-fluorophenyl)-3-methyl-5-{[5-(trifluoromethyl)pyrazin-2-yl]amino}-1,2-thiazole-4-carboxamide]
3 | > 20 | 0.25 | – | Cc1nsc(Nc2cnc(C(F)(F)F)cn2)c1C(=O)Nc1ccc(OC[C@@H]2CCN(CCC(F)(F)F)C2)nc1 [Example 129, 3-Methyl-5-{[5-(trifluoromethyl)pyrazin-2-yl]amino}-N-(6-{[(3R)-1-(3,3,3-trifluoropropyl)pyrrolidin-3-yl]methoxy}pyridin-3-yl)-1,2-thiazole-4-carboxamide]
4 | ≥ 20 | 10 | – | Cc1nsc(Nc2cnc(C(F)(F)F)cn2)c1C(=O)Nc1ccc(C(=O)O)cc1 [Example 97, 4-{[(3-Methyl-5-{[5-(trifluoromethyl)pyrazin-2-yl]amino}-1,2-thiazol-4-yl)carbony]-amino}benzoic acid]
5 | ≥ 20 | 4.4 | – | CNS(=O)(=O)c1ccc(NC(=O)c2c(C)nsc2Nc2cnc3ccccc3n2)cc1 [Example 111, 3-Methyl-N-[4-(methylsulfannoyl)phenyl]-5-(quinoxalin-2-ylamino)-1,2-thiazole-4-carboxamide]
6 | > 20 | 0.16 | – | Cc1nsc(Nc2cnc(C(F)(F)F)cn2)c1C(=O)Nc1ccc(O[C@H]2CCN(CC(F)F)C[C@H]2F)nc1 [Example 144, N-(6-{[(3R,4S)-1-(2,2-difluoroethyl)-3-fluoropiperidin-4-yl]oxy}pyridin-3-yl)-3-methyl-5-{[5-(trifluoromethyl)pyrazin-2-yl]amino}-1,2-thiazole-4-carboxamide]
7 | ≥ 20 | 10 | – | Cc1nsc(Nc2cnc3ccccc3n2)c1C(=O)Nc1cccc(C(=O)N[C@H](C(=O)O)[C@@H](C)O)c1 [Example 105, N-[3-({[3-methyl-5-(quinoxalin-2-ylamino)-1,2-thiazol-4-yl]carbonyl}amino)-benzoyl]threonine]
8 | > 20 | 3.2 | – | Cc1nsc(Nc2cnc3ccccc3n2)c1C(=O)Nc1ccc(C(=O)NC2CN(C(=O)OC(C)(C)C)CC(F)(F)C2)cc1 (stereo not drawn) [Example 158, tert-butyl 3,3-difluoro-5-{[4-({[3-methyl-5-(quinoxalin-2-ylamino)-1,2-thiazol-4-yl]carbonyl}amino)benzoyl]amino} piperidine-1-carboxylate]
9 | > 20 | 0.83 | – | Cc1nsc(Nc2cncc(C(F)(F)F)n2)c1C(=O)Nc1ccc(OCC2CCCN(C(=O)OC(C)(C)C)C2)nc1 (stereo not drawn) [Example 166, tert-butyl 3-{[(5-{[(3-methyl-5-{[6-(trifluoromethyl)pyrazin-2-yl]amino}-1,2-thiazol-4-yl)carbonyl]amino}pyridin-2-yl)oxy]methyl}piperidine-1-carboxylate]
10 | > 20 | 0.18 | – | Cc1nsc(Nc2cnc(C(F)(F)F)cn2)c1C(=O)Nc1ccc(O[C@@H]2CCN(CC(F)F)C[C@@H]2F)nc1 [Example 137, N-(6-{[(3S,4R)-1-(2,2-difluoroethyl)-3-fluoropiperidin-4-yl]oxy}pyridin-3-yl)-3-methyl-5-{[5-(trifluoromethyl)pyrazin-2-yl]amino}-1,2-thiazole-4-carboxamide]
11 | ≥ 20 | 4.4 | – | Cc1nsc(Nc2cnc3ccccc3n2)c1C(=O)Nc1ccc(S(C)(=O)=O)cc1 [Example 115, 3-Methyl-N-[4-(methylsulfonyl)phenyl]-5-(quinoxalin-2-ylamino)-1,2-thiazole-4-carboxamide]
12 | ≥ 20 | 0.28 | – | Cc1nsc(Nc2cnc(C(F)(F)F)cn2)c1C(=O)Nc1ccc(OCC2CCN(CC(F)F)C2)nc1 (stereo not drawn) [Example 122, N-(6-{[1-(2,2-difluoroethyl)pyrrolidin-3-yl]methoxy}pyridin-3-yl)-3-methyl-5-{[5-(trifluoromethyl)pyrazin-2-yl]amino}-1,2-thiazole-4-carboxamide]
13 | ≥ 20 | 1.8 | – | CC(=O)N1CCC(Oc2ccc(NC(=O)c3c(C)nsc3Nc3cnc(C(F)(F)F)cn3)cn2)CC1 [Example 11, N-{6-[(1-Acetylpiperidin-4-yl)oxy]pyridin-3-yl}-3-methyl-5-{[5-(trifluoromethyl)-pyrazin-2-yl]amino}-1,2-thiazole-4-carboxamide]
14 | ≥ 20 | 0.58 | – | Cc1nsc(Nc2cnc(C(F)(F)F)cn2)c1C(=O)Nc1ccc(OC2CCN(CCF)CC2)nc1 [Example 7, N-(6-{[1-(2-Fluoroethyl)piperidin-4-yl]oxy}pyridin-3-yl)-3-methyl-5-{[5-(trifluoromethyl)pyrazin-2-yl]amino}-1,2-thiazole-4-carboxamide]
15 | ≥ 20 | 6.4 | – | Cc1nsc(Nc2cnc3ccccc3n2)c1C(=O)Nc1cccc(C(=O)N[C@H](C(=O)O)[C@@H](C)OC(C)(C)C)c1 [Example 104, O-tert-Butyl-N-[3-({[3-methyl-5-(quinoxalin-2-ylamino)-1,2-thiazol-4-yl]-carbonyl}amino)benzoyl]threonine]
16 | ≥ 20 | 3 | – | CCNS(=O)(=O)c1ccc(NC(=O)c2c(C)nsc2Nc2cnc3ccccc3n2)cc1 [Example 116, N-[4-(Ethylsulfamoyl)phenyl]-3-methyl-5-(quinoxalin-2-ylamino)-1,2-thiazole-4-carboxamide]
17 | ≥ 20 | – | 0.42 | Cc1nsc(Nc2cnc(C(F)(F)F)cn2)c1C(=O)Nc1ccc(OC2CCN(CCC(F)(F)F)CC2)nc1 [Example 426, 3-Methyl-5-{[5-(trifluoromethyl)pyrazin-2-yl]amino}-N-(6-{[1-(3,3,3-trifluoro-propyl)piperidin-4-yl]oxy}pyridin-3-yl)-1,2-thiazole-4-carboxamide, Salt with Hydrochloric Acid]
18 | > 20 | 0.37 | – | CCCCN1CC[C@H](Oc2ccc(NC(=O)c3c(C)nsc3Nc3cnc(C(F)(F)F)cn3)cn2)[C@H](F)C1 [Example 148, N-(6-{[(3R,4S)-1-butyl-3-fluoropiperidin-4-yl]oxy}pyridin-3-yl)-3-methyl-5-{[5-(trifluoromethyl)pyrazin-2-yl]amino}-1,2-thiazole-4-carboxamide]
